# In ChEMBL document CHEMBL1649565, “Besifloxacin, a novel fluoroquinolone, has broad-spectrum in vitro activity against aerobic and anaerobic bacteria” (Antimicrob Agents Chemother, 2009):
# Active and inactive are the calls of the source. The calls are words filed in the database; no cut-off is given here.
# Legend:
# [1] = system: Enterococcus faecium; experiment: Antibacterial activity against vancomycin- resistant Enterococcus faecium assessed as percent susceptible isolates by CLSI M100-S18 method; assay type: functional
# [2] = system: Enterococcus faecalis; experiment: Antibacterial activity against vancomycin- resistant Enterococcus faecalis assessed as percent susceptible isolates by CLSI M100-S18 method; assay type: functional
# [3] = system: Enterococcus faecalis; experiment: Antibacterial activity against vancomycin- resistant Enterococcus faecalis by CLSI M100-S18 method; assay type: functional
# [4] = system: Enterococcus faecium; experiment: Antibacterial activity against vancomycin- resistant Enterococcus faecium by CLSI M100-S18 method; assay type: functional
# [5] = system: Streptococcus pyogenes; experiment: Antibacterial activity against Streptococcus pyogenes by CLSI M100-S18 method; assay type: functional
# [6] = system: Streptococcus oralis; experiment: Antibacterial activity against Streptococcus oralis by CLSI M100-S18 method; assay type: functional
# [7] = system: Streptococcus sanguinis; experiment: Antibacterial activity against Streptococcus sanguinis by CLSI M100-S18 method; assay type: functional
# [8] = system: Streptococcus agalactiae; experiment: Antibacterial activity against Streptococcus agalactiae by CLSI M100-S18 method; assay type: functional
# [9] = system: Staphylococcus epidermidis; experiment: Antibacterial activity against ciprofloxacin-susceptible and methicillin-resistant Staphylococcus epidermidis assessed as percent susceptible isolates by CLSI M100-S18 method; assay type: functional
# [10] = system: Staphylococcus warneri; experiment: Antibacterial activity against Staphylococcus warneri assessed as percent susceptible isolates by CLSI M100-S18 method; assay type: functional
# [11] = system: Staphylococcus saprophyticus; experiment: Antibacterial activity against Staphylococcus saprophyticus assessed as percent susceptible isolates by CLSI M100-S18 method; assay type: functional
# [12] = system: Streptococcus salivarius; experiment: Antibacterial activity against Streptococcus salivarius by CLSI M100-S18 method; assay type: functional
# [13] = system: Citrobacter koseri; experiment: Antibacterial activity against Citrobacter koseri by CLSI M7-A7 method; assay type: functional
# [14] = system: Morganella morganii; experiment: Antibacterial activity against Morganella morganii by CLSI M7-A7 method; assay type: functional
# [15] = system: Staphylococcus epidermidis
# [16] = system: Staphylococcus saprophyticus; experiment: Antibacterial activity against Staphylococcus saprophyticus by CLSI M100-S18 method; assay type: functional
# [17] = system: Staphylococcus hominis; experiment: Antibacterial activity against Staphylococcus hominis by CLSI M100-S18 method; assay type: functional
# [18] = system: Haemophilus influenzae; experiment: Antibacterial activity against non-ciprofloxacin-susceptible Haemophilus influenzae by CLSI M7-A7 method; assay type: functional
# [19] = system: Streptococcus sp.; experiment: Antibacterial activity against Lancefield Streptococcus sp. group F by CLSI M100-S18 method; assay type: functional
# [20] = system: Staphylococcus aureus; experiment: Antibacterial activity against non-ciprofloxacin-susceptible and methicillin-susceptible Staphylococcus aureus assessed as percent susceptible isolates by CLSI M100-S18 method; assay type: functional
# [21] = Antibacterial activity against Lancefield Streptococcus sp. 'group G' by CLSI M100-S18 method; assay type: functional
# [22] = system: Legionella pneumophila; experiment: Antibacterial activity against Legionella pneumophila by CLSI M7-A7 method; assay type: functional
# [23] = system: Listeria monocytogenes; experiment: Antibacterial activity against Listeria monocytogenes by CLSI M100-S18 method; assay type: functional
# [24] = system: Haemophilus influenzae; experiment: Antibacterial activity against ciprofloxacin-susceptible Haemophilus influenzae by CLSI M7-A7 method; assay type: functional
# [25] = system: Streptococcus pneumoniae; experiment: Antibacterial activity against non-levofloxacin susceptible Streptococcus pneumoniae by CLSI M100-S18 method; assay type: functional
# [26] = system: Staphylococcus epidermidis; experiment: Antibacterial activity against non-ciprofloxacin-susceptible and methicillin-susceptible Staphylococcus epidermidis assessed as percent susceptible isolates by CLSI M100-S18 method; assay type: functional
# [27] = system: Staphylococcus epidermidis; experiment: Antibacterial activity against ciprofloxacin-susceptible and methicillin-resistant Staphylococcus epidermidis by CLSI M100-S18 method; assay type: functional
# [28] = system: Neisseria meningitidis; experiment: Antibacterial activity against Neisseria meningitidis assessed as percent susceptible isolates by CLSI M7-A7 method; assay type: functional
# [29] = system: Staphylococcus hominis; experiment: Antibacterial activity against Staphylococcus hominis assessed as percent susceptible isolates by CLSI M100-S18 method; assay type: functional
# [30] = system: Moraxella catarrhalis; experiment: Antibacterial activity against Moraxella catarrhalis assessed as percent susceptible isolates by CLSI M7-A7 method; assay type: functional
# [31] = system: Staphylococcus aureus; experiment: Antibacterial activity against ciprofloxacin-susceptible and methicillin-resistant Staphylococcus aureus by CLSI M100-S18 method; assay type: functional
# [32] = system: Staphylococcus haemolyticus; experiment: Antibacterial activity against Staphylococcus haemolyticus assessed as percent susceptible isolates by CLSI M100-S18 method; assay type: functional
# [33] = system: Staphylococcus lugdunensis; experiment: Antibacterial activity against Staphylococcus lugdunensis assessed as percent susceptible isolates by CLSI M100-S18 method; assay type: functional
# [34] = system: Streptococcus anginosus; experiment: Antibacterial activity against Streptococcus anginosus by CLSI M100-S18 method; assay type: functional
# [35] = Antibacterial activity against Lancefield Streptococcus sp. 'group C' by CLSI M100-S18 method; assay type: functional
# [36] = system: Streptococcus pneumoniae; experiment: Antibacterial activity against levofloxacin-susceptible Streptococcus pneumoniae by CLSI M100-S18 method; assay type: functional
# [37] = system: Staphylococcus haemolyticus; experiment: Antibacterial activity against Staphylococcus haemolyticus by CLSI M100-S18 method; assay type: functional
# [38] = system: Streptococcus pneumoniae; experiment: Antibacterial activity against levofloxacin susceptible Streptococcus pneumoniae assessed as percent susceptible isolates by CLSI M100-S18 method; assay type: functional
# [39] = system: Haemophilus influenzae; experiment: Antibacterial activity against non-ciprofloxacin-susceptible Haemophilus influenzae assessed as percent susceptible isolates by CLSI M7-A7 method; assay type: functional
# [40] = system: Staphylococcus epidermidis; experiment: Antibacterial activity against non-ciprofloxacin-susceptible and methicillin-susceptible Staphylococcus epidermidis by CLSI M100-S18 method; assay type: functional
# [41] = system: Staphylococcus lugdunensis; experiment: Antibacterial activity against Staphylococcus lugdunensis by CLSI M100-S18 method; assay type: functional
# [42] = system: Klebsiella oxytoca; experiment: Antibacterial activity against Klebsiella oxytoca assessed as percent susceptible isolates by CLSI M7-A7 method; assay type: functional
# [43] = system: Staphylococcus aureus; experiment: Antibacterial activity against non-ciprofloxacin-susceptible and methicillin-susceptible Staphylococcus aureus by CLSI M100-S18 method; assay type: functional
# [44] = system: Staphylococcus aureus; experiment: Antibacterial activity against ciprofloxacin-susceptible and methicillin-resistant Staphylococcus aureus assessed as percent susceptible isolates by CLSI M100-S18 method; assay type: functional
# [45] = system: Citrobacter koseri; experiment: Antibacterial activity against Citrobacter koseri assessed as percent susceptible isolates by CLSI M7-A7 method; assay type: functional
# [46] = system: Staphylococcus warneri; experiment: Antibacterial activity against Staphylococcus warneri by CLSI M100-S18 method; assay type: functional
# [47] = system: Streptococcus pneumoniae; experiment: Antibacterial activity against non-levofloxacin susceptible Streptococcus pneumoniae assessed as percent susceptible isolates by CLSI M100-S18 method; assay type: functional
# [48] = system: Streptococcus constellatus; experiment: Antibacterial activity against Streptococcus constellatus by CLSI M100-S18 method; assay type: functional
# [49] = system: Moraxella catarrhalis; experiment: Antibacterial activity against Moraxella catarrhalis by CLSI M7-A7 method; assay type: functional
# [50] = system: Klebsiella oxytoca; experiment: Antibacterial activity against Klebsiella oxytoca by CLSI M7-A7 method; assay type: functional
# [51] = system: Staphylococcus epidermidis; remark: listed apart in the source
# [52] = system: Haemophilus influenzae; experiment: Antibacterial activity against ciprofloxacin-susceptible Haemophilus influenzae assessed as percent susceptible isolates by CLSI M7-A7 method; assay type: functional
# [53] = system: Streptococcus mitis; experiment: Antibacterial activity against Streptococcus mitis by CLSI M100-S18 method; assay type: functional
# [54] = system: Morganella morganii; experiment: Antibacterial activity against Morganella morganii assessed as percent susceptible isolates by CLSI M7-A7 method; assay type: functional
# [55] = system: Streptococcus equinus; experiment: Antibacterial activity against Streptococcus bovis by CLSI M100-S18 method; assay type: functional
# [56] = system: Streptococcus intermedius; experiment: Antibacterial activity against Streptococcus intermedius by CLSI M100-S18 method; assay type: functional
# [57] = system: Neisseria meningitidis; experiment: Antibacterial activity against Neisseria meningitidis by CLSI M7-A7 method; assay type: functional
smiles,measurement,setting,value
CN[C@H](CC(C)C)C(=O)N[C@H]1C(=O)N[C@@H](CC(N)=O)C(=O)N[C@H]2C(=O)N[C@H]3C(=O)N[C@H](C(=O)N[C@H](C(=O)O)c4cc(O)cc(O)c4-c4cc3ccc4O)[C@H](O)c3ccc(c(Cl)c3)Oc3cc2cc(c3O[C@@H]2O[C@H](CO)[C@@H](O)[C@H](O)[C@H]2O[C@H]2C[C@](C)(N)[C@H](O)[C@H](C)O2)Oc2ccc(cc2Cl)[C@H]1O [VANCOMYCIN],Activity,[1],87.3%
same,Activity,[2],80%
same,MIC50,[3],1 µg/mL
same,MIC90,[3],> 32 µg/mL
same,MIC,[4],≤ 0.5 µg/mL
same,MIC50,[4],≤ 0.5 µg/mL
same,MIC90,[4],> 32 µg/mL
CC[C@H]1OC(=O)[C@H](C)[C@@H](O[C@H]2C[C@@](C)(OC)[C@@H](O)[C@H](C)O2)[C@H](C)[C@@H](O[C@@H]2O[C@H](C)C[C@H](N(C)C)[C@H]2O)[C@](C)(O)C[C@@H](C)CN(C)[C@H](C)[C@@H](O)[C@]1(C)O [AZITHROMYCIN],MIC50,[5],0.06 µg/mL
same,MIC90,[5],8 µg/mL
same,MIC50,[6],1 µg/mL
same,MIC90,[6],1 µg/mL
same,MIC50,[7],1 µg/mL
same,MIC90,[7],1 µg/mL
same,MIC50,[8],0.5 µg/mL
same,MIC90,[8],0.5 µg/mL
same,Activity,[9],100%
same,Activity,[10],76%
same,Activity,[11],100%
same,MIC50,[12],1 µg/mL
same,MIC90,[12],1 µg/mL
same,MIC50,[13],8 µg/mL
same,MIC90,[13],> 8 µg/mL
same,MIC50,[14],> 8 µg/mL
same,MIC90,[14],> 8 µg/mL
same,MIC90,[15],inactive
same,MIC50,[16],1 µg/mL
same,MIC90,[16],> 8 µg/mL
same,MIC50,[17],> 8 µg/mL
same,MIC90,[17],> 8 µg/mL
same,MIC50,[18],1 µg/mL
same,MIC90,[18],8 µg/mL
same,MIC50,[19],0.5 µg/mL
same,MIC90,[19],0.5 µg/mL
same,Activity,[20],18.2%
same,MIC50,[21],0.5 µg/mL
same,MIC90,[21],0.5 µg/mL
same,MIC50,[22],0.03 µg/mL
same,MIC90,[22],0.03 µg/mL
same,MIC50,[23],0.5 µg/mL
same,MIC90,[23],1 µg/mL
same,MIC50,[24],2 µg/mL
same,MIC90,[24],2 µg/mL
same,MIC50,[25],4 µg/mL
same,MIC90,[25],> 64 µg/mL
same,Activity,[26],0%
same,MIC,[27],0.25 µg/mL
same,Activity,[28],100%
same,Activity,[29],30%
same,Activity,[30],100%
same,MIC50,[31],1 µg/mL
same,Activity,[32],39.6%
same,Activity,[33],66.7%
same,MIC50,[34],0.06 µg/mL
same,MIC90,[34],> 8 µg/mL
same,MIC50,[35],0.5 µg/mL
same,MIC90,[35],0.5 µg/mL
same,MIC50,[36],0.06 µg/mL
same,MIC90,[36],> 64 µg/mL
same,MIC50,[37],> 8 µg/mL
same,MIC90,[37],> 8 µg/mL
same,Activity,[38],62.5%
same,Activity,[39],81.8%
same,MIC50,[3],> 128 µg/mL
same,MIC90,[3],> 128 µg/mL
same,MIC50,[4],> 128 µg/mL
same,MIC90,[4],> 128 µg/mL
same,MIC50,[40],> 8 µg/mL
same,MIC50,[41],> 8 µg/mL
same,MIC90,[41],> 8 µg/mL
same,Activity,[42],90%
same,MIC50,[43],> 8 µg/mL
same,MIC90,[43],> 8 µg/mL
same,Activity,[44],94.7%
same,Activity,[45],99%
same,MIC50,[46],> 8 µg/mL
same,MIC90,[46],> 8 µg/mL
same,Activity,[47],36.5%
same,MIC50,[48],1 µg/mL
same,MIC90,[48],1 µg/mL
same,MIC,[49],0.015 µg/mL
same,MIC50,[49],0.015 µg/mL
same,MIC90,[49],0.03 µg/mL
same,MIC50,[50],> 8 µg/mL
same,MIC90,[50],> 8 µg/mL
same,MIC90,[51],inactive
same,Activity,[52],100%
same,MIC50,[53],1 µg/mL
same,MIC90,[53],1 µg/mL
same,Activity,[54],76.5%
same,MIC50,[55],1 µg/mL
same,MIC90,[55],1 µg/mL
same,MIC50,[56],1 µg/mL
same,MIC90,[56],1 µg/mL
same,MIC50,[57],0.06 µg/mL
same,MIC90,[57],0.06 µg/mL
